{"source": "patent US10638756B2", "about": "“Molecules having pesticidal utility, and intermediates, compositions, and processes, related thereto” (Dow AgroSciences LLC, priority 2017, dated 2020)", "assay_type_in_all_cases": "in vivo", "key": {"[1]": {"tested_on": "Green Peach Aphid (Myzus persicae)", "assay": "Bioassay on Green Peach Aphid (GPA), foliar spray on cabbage seedlings", "conditions": "72 h, 200 ppm foliar spray on cabbage seedlings, three days, Abbott corrected % control, read-out: GPA % Control (or Mortality) rating", "experimental": "Certain molecules disclosed in this document were tested against GPA using procedures described in the following example. In the reporting of the results, the “GPA & YFM Rating Table” was used (See Table Section).\nCabbage seedlings grown in 3-inch pots, with 2-3 small (3-5 cm) true leaves, were used as test substrate. The seedlings were infested with 20-50 GPA (wingless adult and nymph stages) one day prior to chemical application. Four pots with individual seedlings were used for each treatment. Test molecules (2 mg) were dissolved in 2 mL of acetone/methanol (1:1) solvent, forming stock solutions of 1000 ppm test molecule. The stock solutions were diluted 5× with 0.025% Tween 20 in water to obtain the solution at 200 ppm test molecule. A hand-held aspirator-type sprayer was used for spraying a solution to both sides of […] leaves until runoff. Reference plants (solvent check) were sprayed with the diluent only containing 20% by volume of acetone/methanol (1:1) solvent. Treated plants were held in a holding room for three days at approximately 25° C. and ambient relative humidity (RH) prior to grading. Evaluation was conducted by counting the number of live aphids per plant under a microscope. Percent control was measured using Abbott's correction formula (W. S. Abbott, “A Method of Computing the Effectiveness of an Insecticide” J. Econ. Entomol. 18 (1925), pp. 265-267) as follows. Corrected % Control=100*(X−Y)/X where X=No. of live aphids on solvent check plants and Y=No. of live aphids on treated plants. The results are indicated in the table entitled “Table ABC: Biological Results” (See Table Section)."}, "[2]": {"tested_on": "Beet Armyworm (Spodoptera exigua)", "assay": "Bioassay on Beet Armyworm (BAW), 128-well diet tray assay", "conditions": "Spodoptera exigua, 168 h; 50 μg/cm^2 on artificial diet, second instar larvae, five to seven days; read-out: BAW % Control (or Mortality) rating"}, "[3]": {"tested_on": "Cabbage Looper (Trichoplusia ni)", "assay": "Bioassay on Cabbage Looper (CL), 128-well diet tray assay", "conditions": "168 h, 50 μg/cm^2 on artificial diet, second instar larvae, five to seven days, read-out: CL % Control (or Mortality) rating", "in_short": "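Each of eight wells receives artificial diet treated at 50 μg/cm^2 with the test molecule, then one to five second-instar larvae. Incubation runs five to seven days at 25° C with a 14:10 light-dark cycle under vented covers. Mortality is scored per well as a percentage and averaged.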"}, "[4]": {"tested_on": "Yellow Fever Mosquito (Aedes aegypti)", "conditions": "about 1 day-old larvae, 3 days, scored on mortality"}}}
{"smiles": "C#CCN(C(=O)c1ccc(/C(F)=C/C(c2cc(Cl)c(Cl)c(Cl)c2)C(F)(F)F)cc1C(F)(F)F)N(C)c1ncccn1", "note": "(stereo not shown) [F180, (Z)—N′-Methyl-N-(prop-2-yn-1-yl)-N′-(pyrimidin-2-yl)-4-(1,4,4,4-tetrafluoro-3-(3,4,5-trichlorophenyl)but-1-en-1-yl)-2-(trifluoromethyl)benzohydrazide]", "values": [{"measurement": "mortality at 200 ppm", "setting": "[1]", "result": "0 to 80", "unit": "%"}, {"measurement": "mortality at 50 µg/cm2", "setting": "[2]", "result": "50 to 100", "unit": "%"}, {"measurement": "mortality at 50 µg/cm2", "setting": "[3]", "result": "50 to 100", "unit": "%"}, {"measurement": "YFM % Control (or Mortality) rating", "setting": "[4]", "result": "A (80-100)"}]}
